Literature values as cited in patent US20260272955A1, “Controlled Release Formulations of Highly Lipophilic Physiologically Active Substances” (ADD Advanced Drug Delivery Technologies Ltd., priority 2019, published 2026).

Settings: decimal logarithm of the n-octanol/water partition coefficient; values typically refer to room temperature (25° C.)

Structure (SMILES): C=C(C)[C@@H]1CCC(C)=C[C@H]1c1c(O)cc(CCCCC)cc1O [Canapure PH, 2-[1R-3-methyl-6R-(1-methylethenyl)-2-cyclohexen-1-yl]-5-pentyl-1,3-benzenediol]
- log P: about 6.1
